Consider nine compounds from paper PMC6100075, “Correlation between the Potency of Flavonoids on Mushroom Tyrosinase Inhibitory Activity and Melanin Synthesis in Melanocytes” (Molecules : A Journal of Synthetic Chemistry and Natural …, 2018).

SMILES strings stand for the structures.

The target of one data set is mushroom tyrosinase (Agaricus bisporus, UniProt C7FF04). Briefly: Mushroom tyrosinase inhibitory assay (o-diphenolase activity, L-DOPA as substrate).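 Also: enzyme and test sample preincubated 10 min at 25 °C in pH 6.8 phosphate buffer, 50% DMSO vehicle as control, enzyme-free mixture as blank.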 Type of data set: biochemical. Conditions: 200 μM; L-DOPA substrate; read-out: Mushroom Tyrosinase Inhibition % Inhibition (at 200 μM).
mushroom tyrosinase, sequence (G1K3P4 entry or part of it): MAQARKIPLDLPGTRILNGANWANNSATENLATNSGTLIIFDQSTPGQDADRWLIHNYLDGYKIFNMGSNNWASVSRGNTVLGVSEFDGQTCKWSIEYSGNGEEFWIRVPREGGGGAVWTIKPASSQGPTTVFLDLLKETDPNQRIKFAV
mushroom tyrosinase, sequence (C7FF04 2-392): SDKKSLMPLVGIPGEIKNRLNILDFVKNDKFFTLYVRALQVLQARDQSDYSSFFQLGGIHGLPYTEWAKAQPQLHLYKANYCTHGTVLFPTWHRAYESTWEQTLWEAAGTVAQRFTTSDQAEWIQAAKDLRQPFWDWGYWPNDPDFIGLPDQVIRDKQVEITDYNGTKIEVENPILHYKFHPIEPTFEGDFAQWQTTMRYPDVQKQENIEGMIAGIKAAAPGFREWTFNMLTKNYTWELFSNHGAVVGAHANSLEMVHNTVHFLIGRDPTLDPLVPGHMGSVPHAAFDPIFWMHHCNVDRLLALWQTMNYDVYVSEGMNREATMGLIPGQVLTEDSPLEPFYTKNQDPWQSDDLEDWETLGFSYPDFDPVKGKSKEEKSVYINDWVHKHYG
Regarding `COc1ccc([C@@H]2COc3cc(O)ccc3C2)c(OC)c1O` [Compound 20, (3R)(+)-Mucronulatol], the inhibition at 200 µM is 48.3 ± 1.6%.

With `COc1ccc(-c2coc3cc(O)cc(O)c3c2=O)cc1` [Compound 3, Biochanin A], the inhibition at 200 µM stood at 9.2 ± 0.4%.

Turning to `COc1ccc([C@@H]2COc3cc(O)ccc3C2)c(O)c1` [Compound 19, (3R)-Vestitol], the inhibition at 200 µM was 35.6 ± 2.2%.

With `COc1cc(OC)c(C2COc3cc(O)ccc3C2=O)cc1O` (stereo not shown) [Compound 12, Dalparvin], the inhibition at 200 µM is 31.6 ± 0.5%.

Turning to `COc1ccc([C@H]2COc3cc(O)cc(O)c3C2=O)c(OC)c1O` [Compound 17, (3S)-Secundiflorol H], the inhibition at 200 µM stood at 44 ± 3.7%.

The data set is the same for the next values; noted with them: 300 μM; L-DOPA substrate; read-out: Mushroom Tyrosinase Inhibition % Inhibition (at 300 μM).
For the compound `COc1cc2c(cc1C1COc3cc(O)ccc3C1=O)OCO2` (stereo not shown) [Compound 11, Onogenin], the inhibition at 300 µM worked out at 0%.

For `COc1ccc(C2COc3cc(O)ccc3C2=O)c(OC)c1OC` [Compound 15, (3R,S)-3′-O-Methylviolanone], the inhibition at 300 µM is 0%.

The same data set, now with this note: 500 μM; L-DOPA substrate.
The compound `COc1cc(OC)c(C2COc3cc(O)cc(O)c3C2=O)cc1O` (stereo not shown) [Compound 18, Dalparvin A] displayed an inhibition at 500 µM of 0%.

With `COc1ccc(C2COc3cc(O)ccc3C2=O)c(O)c1OC` (stereo not shown) [Compound 13, Dalparvin B], the inhibition at 500 µM worked out at 4%.

The data set is the same for the next values; noted with them: o-diphenolase, L-DOPA substrate.
On to `COc1ccc(-c2coc3cc(O)cc(O)c3c2=O)cc1` [Compound 3, Biochanin A], for which the “inhibitory activity on mushroom tyrosinase (in words)” value is on record as “did not show inhibitory activity”.

System in a further data set: not listed separately
Briefly: Cell viability assay (PrestoBlue resazurin).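 Also: mouse B16-F10 melanoma cells exposed to test samples for 72 h, with viability read as fluorescence of resorufin formed when living cells reduce PrestoBlue resazurin.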 Conditions: mouse, B16-F10 melanoma cells, 15 μM; 72 h; relative to control; read-out: % Cell Viability. It is filed as cell-based, Mus musculus (mouse).
Consider `COc1cc(OC)c(C2COc3cc(O)cc(O)c3C2=O)cc1O` (stereo not shown) [Compound 18, Dalparvin A], for which the viability at 72 h, 15 µM was 105 ± 4.8%.

As to `COc1ccc([C@@H]2COc3cc(O)ccc3C2)c(OC)c1O` [Compound 20, (3R)(+)-Mucronulatol], the viability at 72 h, 15 µM was 104 ± 6.9%.

In the case of `COc1ccc(C2COc3cc(O)ccc3C2=O)c(O)c1OC` (stereo not shown) [Compound 13, Dalparvin B], the viability at 72 h, 15 µM worked out at 82.3 ± 5.4%.

As to `COc1cc2c(cc1C1COc3cc(O)ccc3C1=O)OCO2` (stereo not shown) [Compound 11, Onogenin], the viability at 72 h, 15 µM came to 100 ± 5%.

Turning to `COc1ccc(-c2coc3cc(O)cc(O)c3c2=O)cc1` [Compound 3, Biochanin A], the viability at 72 h, 15 µM turned out to be 103 ± 4.5%.

For `COc1ccc(C2COc3cc(O)ccc3C2=O)c(OC)c1OC` [Compound 15, (3R,S)-3′-O-Methylviolanone], the viability at 72 h, 15 µM came out at 74.2 ± 7.8%.

With `COc1ccc([C@@H]2COc3cc(O)ccc3C2)c(O)c1` [Compound 19, (3R)-Vestitol], the viability at 72 h, 15 µM worked out at 142 ± 3%.

As for `COc1cc(OC)c(C2COc3cc(O)ccc3C2=O)cc1O` (stereo not shown) [Compound 12, Dalparvin], the viability at 72 h, 15 µM was found to be 117 ± 8.9%.

With `COc1ccc([C@H]2COc3cc(O)cc(O)c3C2=O)c(OC)c1O` [Compound 17, (3S)-Secundiflorol H], the viability at 72 h, 15 µM stood at 109 ± 6.6%.

The data set is the same for the next values; noted with them: mouse, B16-F10 melanoma cells, 30 μM; 72 h; relative to control; read-out: % Cell Viability.
`COc1cc(OC)c(C2COc3cc(O)cc(O)c3C2=O)cc1O` (stereo not shown) [Compound 18, Dalparvin A]: the viability at 72 h, 30 µM is 100 ± 7.1%.

As for `COc1ccc([C@@H]2COc3cc(O)ccc3C2)c(OC)c1O` [Compound 20, (3R)(+)-Mucronulatol], the viability at 72 h, 30 µM was determined as 102 ± 2.7%.

In the case of `COc1ccc(C2COc3cc(O)ccc3C2=O)c(O)c1OC` (stereo not shown) [Compound 13, Dalparvin B], the viability at 72 h, 30 µM turned out to be 74.1 ± 6.4%.

For `COc1cc2c(cc1C1COc3cc(O)ccc3C1=O)OCO2` (stereo not shown) [Compound 11, Onogenin], the viability at 72 h, 30 µM was 92 ± 2%.

For the compound `COc1ccc(-c2coc3cc(O)cc(O)c3c2=O)cc1` [Compound 3, Biochanin A], the viability at 72 h, 30 µM turned out to be 102 ± 4.8%.

For `COc1ccc(C2COc3cc(O)ccc3C2=O)c(OC)c1OC` [Compound 15, (3R,S)-3′-O-Methylviolanone], the viability at 72 h, 30 µM stood at 72.9 ± 6.2%.

Take `COc1ccc([C@@H]2COc3cc(O)ccc3C2)c(O)c1` [Compound 19, (3R)-Vestitol]: the viability at 72 h, 30 µM came out at 120 ± 4.1%.

As for `COc1cc(OC)c(C2COc3cc(O)ccc3C2=O)cc1O` (stereo not shown) [Compound 12, Dalparvin], the viability at 72 h, 30 µM is 99.7 ± 6.7%.

For the compound `COc1ccc([C@H]2COc3cc(O)cc(O)c3C2=O)c(OC)c1O` [Compound 17, (3S)-Secundiflorol H], the viability at 72 h, 30 µM is 103 ± 4.1%.

A further data set concerns B16-F10 melanoma cells. Nature of the data set: Total melanin content assay. Type of data set: cell-based, Mus musculus (mouse). The conditions noted are these: Mus musculus, B16-F10; 15 μM; 72 h; relative to control; read-out: % Melanin Content. The method, then:
Mus musculus (mouse) melanoma cell line, B16-F10 (ATCC® Number: CRL-6475™, Manassas, VA, USA), was cultured in complete Dulbecco′s Modified Eagle′s Medium (DMEM, phenol red-free medium) containing 10% fetal bovine serum, 25 mM glucose, 4 mM L-glutamine, 1 mM sodium pyruvate, 10 μg/mL penicillin, and 10 μg/mL streptomycin, at 37 °C, with 5% carbon dioxide (CO2) in a humidified atmosphere.
The total melanin content, produced both extracellularly and intracellularly, was determined as follows: B16-F10 cells were seeded onto a 24-well plate at a concentration of 50,000 cells/0.5 mL/well and were incubated for 24 h, followed by treatment with either the test compounds or the control (0.5% DMSO), and then incubated for 72 h. For extraction, the total produced melanin and 0.5 mL of 2 N NaOH containing 20% DMSO were added directly to the cell culture medium, mixed by pipetting and then incubated at room temperature for 1 h. The lysed cell extract was centrifuged at 13,000× g for 5 min. Finally, the supernatant was transferred to a 96-well plate and the relative melanin content was detected at 405 nm using a micro plate reader. Kojic acid and oxyresveratrol were used as positive controls.
For `COc1cc(OC)c(C2COc3cc(O)cc(O)c3C2=O)cc1O` (stereo not shown) [Compound 18, Dalparvin A], the activity at 15 µM came to 132 ± 4.4%.

Turning to `COc1ccc([C@@H]2COc3cc(O)ccc3C2)c(OC)c1O` [Compound 20, (3R)(+)-Mucronulatol], the activity at 15 µM came out at 179 ± 15.9%.

Take `COc1ccc(C2COc3cc(O)ccc3C2=O)c(O)c1OC` (stereo not shown) [Compound 13, Dalparvin B]: the activity at 15 µM amounted to 102 ± 2.7%.

As to `COc1cc2c(cc1C1COc3cc(O)ccc3C1=O)OCO2` (stereo not shown) [Compound 11, Onogenin], the activity at 15 µM came out at 134 ± 4.6%.

On to `COc1ccc(-c2coc3cc(O)cc(O)c3c2=O)cc1` [Compound 3, Biochanin A], for which the activity at 15 µM came out at 165 ± 5.9%.

Turning to `COc1ccc(C2COc3cc(O)ccc3C2=O)c(OC)c1OC` [Compound 15, (3R,S)-3′-O-Methylviolanone], the activity at 15 µM came to 143 ± 8.4%.

Take `COc1ccc([C@@H]2COc3cc(O)ccc3C2)c(O)c1` [Compound 19, (3R)-Vestitol]: the activity at 15 µM came out at 186.1 ± 1.6%.

Regarding `COc1cc(OC)c(C2COc3cc(O)ccc3C2=O)cc1O` (stereo not shown) [Compound 12, Dalparvin], the activity at 15 µM was found to be 134 ± 9.7%.

`COc1ccc([C@H]2COc3cc(O)cc(O)c3C2=O)c(OC)c1O` [Compound 17, (3S)-Secundiflorol H]: the activity at 15 µM was determined as 118 ± 17.7%.

Staying with this data set, now noted: Mus musculus, B16-F10; 30 μM; 72 h; relative to control; read-out: % Melanin Content.
For `COc1cc(OC)c(C2COc3cc(O)cc(O)c3C2=O)cc1O` (stereo not shown) [Compound 18, Dalparvin A], the activity at 30 µM was determined as 184 ± 10.6%.

With `COc1ccc([C@@H]2COc3cc(O)ccc3C2)c(OC)c1O` [Compound 20, (3R)(+)-Mucronulatol], the activity at 30 µM was 264 ± 8.2%.

Consider `COc1ccc(C2COc3cc(O)ccc3C2=O)c(O)c1OC` (stereo not shown) [Compound 13, Dalparvin B], for which the activity at 30 µM was 99.1 ± 2.3%.

`COc1cc2c(cc1C1COc3cc(O)ccc3C1=O)OCO2` (stereo not shown) [Compound 11, Onogenin]: the activity at 30 µM was determined as 170 ± 15.4%.

Consider `COc1ccc(-c2coc3cc(O)cc(O)c3c2=O)cc1` [Compound 3, Biochanin A], for which the activity at 30 µM was 168 ± 5.1%.

In the case of `COc1ccc(C2COc3cc(O)ccc3C2=O)c(OC)c1OC` [Compound 15, (3R,S)-3′-O-Methylviolanone], the activity at 30 µM came out at 157 ± 11.5%.

Consider `COc1ccc([C@@H]2COc3cc(O)ccc3C2)c(O)c1` [Compound 19, (3R)-Vestitol], for which the activity at 30 µM was 232 ± 9.3%.

As for `COc1cc(OC)c(C2COc3cc(O)ccc3C2=O)cc1O` (stereo not shown) [Compound 12, Dalparvin], the activity at 30 µM worked out at 200 ± 12.1%.

Turning to `COc1ccc([C@H]2COc3cc(O)cc(O)c3C2=O)c(OC)c1O` [Compound 17, (3S)-Secundiflorol H], the activity at 30 µM came out at 146 ± 6.1%.

For another data set, the target named is T1, murine tyrosinase (Mus musculus, UniProt P11344).
T1 construct: The cells were lysed by vortex and incubated at 4 °C for 1 h to solubilize the tyrosinase enzyme; endogenous in cells; host or cells: B16-F10 melanoma cells (Triton X-100 lysate, dialyzed)
T1 sequence (P11344 19-533): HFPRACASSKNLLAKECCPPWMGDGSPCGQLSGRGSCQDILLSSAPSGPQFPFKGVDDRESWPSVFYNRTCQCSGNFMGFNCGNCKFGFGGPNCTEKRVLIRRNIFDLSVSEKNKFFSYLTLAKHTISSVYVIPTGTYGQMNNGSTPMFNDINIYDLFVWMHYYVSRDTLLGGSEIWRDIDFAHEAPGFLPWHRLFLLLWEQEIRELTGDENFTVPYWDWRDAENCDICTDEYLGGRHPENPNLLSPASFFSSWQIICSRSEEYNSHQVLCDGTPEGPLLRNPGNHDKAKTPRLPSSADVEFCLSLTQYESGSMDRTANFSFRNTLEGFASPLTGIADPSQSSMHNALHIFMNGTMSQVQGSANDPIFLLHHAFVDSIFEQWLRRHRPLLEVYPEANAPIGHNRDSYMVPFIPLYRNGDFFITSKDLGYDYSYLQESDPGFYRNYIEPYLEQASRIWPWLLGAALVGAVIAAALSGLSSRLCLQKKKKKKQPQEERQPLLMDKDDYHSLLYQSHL
Nature of the data set: Murine tyrosinase inhibitory assay (o-diphenolase activity, crude enzyme from B16-F10 melanoma cells).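 Also: crude tyrosinase taken from lysed, dialyzed B16-F10 cell extract, with the inhibition reaction incubated for 2 h at 37 °C.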 Type of data set: biochemical. Conditions: 200 μM; L-DOPA substrate; read-out: Murine Tyrosinase Inhibition, % (at 200 μM).
`COc1ccc([C@@H]2COc3cc(O)ccc3C2)c(OC)c1O` [Compound 20, (3R)(+)-Mucronulatol]: the inhibition at 200 µM is 12.8 ± 2.1%.

On to `COc1ccc(C2COc3cc(O)ccc3C2=O)c(O)c1OC` (stereo not shown) [Compound 13, Dalparvin B], for which the inhibition at 200 µM stood at 9.8 ± 2.8%.

As to `COc1ccc([C@@H]2COc3cc(O)ccc3C2)c(O)c1` [Compound 19, (3R)-Vestitol], the inhibition at 200 µM was 12.4 ± 3.3%.

Staying with this data set, now noted: 200 μM; L-DOPA substrate; read-out: Murine Tyrosinase Inhibition, % (at 200 μM), symbol.
Consider `COc1cc(OC)c(C2COc3cc(O)cc(O)c3C2=O)cc1O` (stereo not shown) [Compound 18, Dalparvin A], for which the inhibition at 200 µM is less than 0%.

As to `COc1cc2c(cc1C1COc3cc(O)ccc3C1=O)OCO2` (stereo not shown) [Compound 11, Onogenin], the inhibition at 200 µM is less than 0%.

For `COc1ccc(-c2coc3cc(O)cc(O)c3c2=O)cc1` [Compound 3, Biochanin A], the inhibition at 200 µM is less than 0%.

`COc1ccc(C2COc3cc(O)ccc3C2=O)c(OC)c1OC` [Compound 15, (3R,S)-3′-O-Methylviolanone]: the inhibition at 200 µM was less than 0%.

Consider `COc1cc(OC)c(C2COc3cc(O)ccc3C2=O)cc1O` (stereo not shown) [Compound 12, Dalparvin], for which the inhibition at 200 µM is less than 0%.

Consider `COc1ccc([C@H]2COc3cc(O)cc(O)c3C2=O)c(OC)c1O` [Compound 17, (3S)-Secundiflorol H], for which the inhibition at 200 µM was less than 0%.
